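Briefly, cells in 96-well plates were exposed to five compound concentrations for 48 h, and endpoints were estimated by linear interpolation. GI50 is the concentration that inhibits growth by half. TGI is the concentration that stops growth completely.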
What was measured:
Test in all cases: inhibition of tumour cell growth, NCI panel, 48 h
HOP-62 NSCLC = test system: HOP-62 NSCLC
NCI-H226 lung = test system: NCI-H226 lung
NCI-H522 lung = test system: NCI-H522 lung
OVCAR-5 ovarian = test system: OVCAR-5 ovarian
SF-268 CNS = test system: SF-268 CNS
SW-620 colon = test system: SW-620 colon
U251 CNS = test system: U251 CNS
UO-31 renal = test system: UO-31 renal
HOP-92 NSCLC = test system: HOP-92 NSCLC
BT-549 breast = test system: BT-549 breast

Structure (SMILES)	TGI (HOP-62 NSCLC) [µM]	TGI (NCI-H226 lung) [µM]	TGI (NCI-H522 lung) [µM]	TGI (OVCAR-5 ovarian) [µM]	TGI (SF-268 CNS) [µM]	TGI (SW-620 colon) [µM]	TGI (U251 CNS) [µM]	TGI (UO-31 renal) [µM]	GI50 (HOP-62 NSCLC) [µM]	GI50 (HOP-92 NSCLC) [µM]	TGI (HOP-92 NSCLC) [µM]	GI50 (NCI-H226 lung) [µM]	GI50 (NCI-H522 lung) [µM]	GI50 (OVCAR-5 ovarian) [µM]	GI50 (SF-268 CNS) [µM]	GI50 (U251 CNS) [µM]	GI50 (UO-31 renal) [µM]	GI50 (BT-549 breast) [µM]	TGI (BT-549 breast) [µM]	GI50 (SW-620 colon) [µM]
COc1ccccc1/C=C1\C(=O)N(C(=O)Cc2ccccc2)N=C1C	> 100	> 100	> 100	> 100	> 100	> 100	> 100	> 100												
CNc1c2ccccc2nc2occ(Cl)c12	> 100	> 100	> 100	> 100	> 100		> 100	> 100	40.7	26.9	> 100	32.9	80.3	47	26.8	31.4	31.3			
CCOC(=O)c1ccc(N=Cc2ccc(N(CCC#N)S(=O)(=O)c3ccccc3)cc2C)cc1	> 100		> 100	> 100	> 100	> 100	> 100	> 100												
COc1ccc2nc3cc(Cl)ccc3c(Sc3ccc(N)cc3)c2c1	49.8	34.3	16.2	34.8	34.4	12.8	22.6	22.7			39.7									
CN(c1cccc(C(=O)O)c1)c1cc(O/N=[N+](\[O-])N(C)C)c([N+](=O)[O-])cc1[N+](=O)[O-]	> 100	> 100	> 100	> 100	> 100	> 100	> 100	> 100	46.8			> 100	> 100	> 100	55.5	> 100	> 100	> 100	> 100	> 100
O=C(n1c2ccccc2c2n[nH]c(=S)nc21)C(F)(F)F	> 100	> 100	> 100	> 100	> 100	> 100	> 100	> 100			> 100									
CCCCC[C@@H]1CCCC2NC(CCCCCO[Si](c3ccccc3)(c3ccccc3)C(C)(C)C)CCC21 (some centres undefined)	36.8	36.6	31.6	34.8	38.2	31.6	27.8	26.6			22.8									
CCN(Cc1ccc(Cl)c(Cl)c1)c1ccc2nc(N)nc(N)c2c1C		4.3	1.82	2.13	1.69	1.6		1.64		0.24	1.82	0.96	0.0378	0.209	0.0351		0.0457	0.296	7.27	< 0.01
Cn1c(=O)nc2n(-c3ccc(Br)cc3)c3ccccc3nc-2c1=O	64.8	28.5	18.4	26.4	31	6.57	19.9	37.9												
CC(C)(C)c1cc(C2c3cc4c(cc3OC(O)(CO)C2C(=O)O)OCO4)cc(C(C)(C)C)c1O (centres undefined) (tested in a mixture with another compound)	53.1					33.4	29.1	26.6			43.7									
N#CN1CC[C@@H]2CC3(CCC2C1)OCCO3 (some centres undefined)	> 100	> 100		> 100	> 100	> 100	> 100	> 100			> 100									
COC(=O)NC1(NC(=O)OC)NC(=O)c2ccccc2N1	> 100	> 100	> 100	> 100	> 100	> 100		> 100											> 100	
Nc1n[n+]([O-])c2ccc(Cl)cc2[n+]1[O-]	79.7	72.9	38.2	79	> 100	61.2	67.3	> 100											29.2	
O=C(c1ccccc1)c1nc2c(Cl)ccc(Cl)c2cc1C(Br)Br	3.11	3.61	2.9	2.29	2.96	1.19	2.38	2.56												
CC(C)(C)C1=CC(=N/N=c2\scc(-c3ccccc3)n2Cc2ccccc2)C=C(C(C)(C)C)C1=O	> 100	> 100		> 100	> 100	> 100	> 100	> 100												
N[C@H]1CCC[C@@H](O)C1O (some centres undefined)	> 100	> 100	> 100	> 100	> 100	> 100	> 100	> 100											> 100	
O=C(NCCCN1CCN(CCCNC(=O)c2cccc3ccccc23)CC1)c1cccc2ccccc12	> 100	> 100		> 100		> 100	> 100	> 100			21.3									
COc1ccc([N+](=O)[O-])c2c(NCCCN(C)C)c(C)c(C)nc12	> 100		> 100	> 100	> 100	> 100	> 100	> 100			> 100								> 100	
COC(=O)CNC(=O)C(=O)c1c(O)c(O)c(C(C)C)c2cc(C)c(-c3c(C)cc4c(C(C)C)c(O)c(O)c(C(=O)C(=O)NCC(=O)OC)c4c3O)c(O)c12	9.61		3.43	9.13	8.75	6.94	5.85	6.04	2.41	1.38	3.81		1.32	1.56	1.88	1.53	1.43	2.65	11.8	1.96
CNC(=O)[C@H](Cc1c[nH]c2ccccc12)NC(=O)[C@@H](CC(=O)NO)CC(C)C	> 25	> 25	> 25	> 25	> 25	> 25	> 25	> 25	> 25			> 25	> 25	> 25	> 25	> 25	> 25	> 25	> 25	> 25
O=c1[nH]c2nc3ccccc3c(=O)n2nc1Cc1ccccc1	> 100	> 100	> 100	> 100	> 100	> 100	> 100	> 100												

Source: PubChem BioAssay (NCI)
